{
  "source": "patent US20230149510A1",
  "about": "“METHOD FOR ALLEVIATING ARTHRITIS USING EPIDERMAL GROWTH FACTOR” (Lovin BioMed Co., Ltd., priority 2021, published 2023)",
  "key": {"[1]": {"test_system": "Chick type II collagen (CII)-induced rheumatoid arthritis (RA)", "assay": "Evaluation of RA severity (visual arthritis scoring), collagen-induced RA", "type": "in vivo, DBA/1 mice", "conditions": "mice, 100 μL intraperitoneal once daily for 20 days, scored every 3 days, 21st to 42nd day, FIG. 6", "protocol": "Female DBA/1 mice (8 weeks old, with a body weight of approximately 20 g) used in the following experiments were purchased from National Laboratory Animal Center, Taipei City, Taiwan. All the experimental mice were housed in an animal room under the following laboratory conditions: an alternating 12-hour light and 12-hour dark cycle, a temperature maintained at 21° C. to 23° C., and a relative humidity maintained at 45% to 60%. Furthermore, water and feed were provided ad libitum for all the experimental mice. All experimental procedures involving the experimental mice were in compliance with the legal provision of the Institutional Animal Care and Use Committee of National Chung Hsing University, Taiwan, and were carried out according to the Guide for the Care and Use of Laboratory Animals of National Institutes of Health (NIH). […]\nAt the end of the 21st day after the initial immunization, the pathological symptoms (i.e., erythema and edema in the sole joint, ankle, and knee joint) in the respective mouse was assessed according to the visual arthritis scoring system described in Brand D. D. et al. (2007), Nat. […] Thereafter, the abovementioned visual arthritis scoring system was performed every 3 days until the 42nd day after the initial immunization (i.e., each mouse was scored 8 times). The degree of RA severity was scored on a scale from 1 to 8. […]"}, "[2]": {"test_system": "serum COMP, TNF-α, IL-1β, IL-6, IL-17A, PGE2 and NO in MIA-induced OA", "assay": "OA biomarkers and inflammatory markers in serum sample (ELISA, Griess assay), MIA-induced OA", "type": "in vivo, Sprague Dawley rats", "conditions": "rat serum; for content of cartilage oligomeric matrix protein (COMP): day 28, FIG. 3; for content of IL-1β / content of IL-6 / content of IL-17A / content of TNF-α: day 28, FIG. 4; for content of PGE2: day 28, FIG. 5; for content of NO: day 28, Griess assay, FIG. 5", "protocol": "The Sprague Dawley rats were divided into five groups, including one normal control group, one pathological control group, one comparative group, and two experimental groups (i.e., experimental groups 1 to 2) (n=5 rats in each group).\nThe right knee joint of the respective rat in the pathological control group, the comparative group, and the experimental groups 1 and 2 was intraarticularly injected with 30 μL of a monosodium iodoacetate (MIA) solution (50 g/L, in 0.9% normal saline). In addition, the right knee joint of the respective rat in the normal control group was intraarticularly injected with 30 μL of 0.9% normal saline.\nOn day 3 and day 14 after injection of the MIA solution, the right knee joint of the respective rat in the comparative group was intraarticularly injected with 30 μL of 1% HA, the right knee joint of the respective rat in the experimental group 1 was intraarticularly injected with 30 μL of the EGF solution (containing 20 μg/g EGF), the right knee joint of the respective rat in the experimental group 2 was intraarticularly injected with 30 μL of the mixture solution (containing 20 μg/g EGF), and the right knee joint of the respective rat in the pathological control group was intraarticularly injected with 30 μL of 0.9% normal saline. In addition, the rats of the normal control group received no treatment.\nAfter determining the diameter of right knee joint at the end of day 28 as described in section D of this example, the rats in each group were sacrificed by virtue of 95% CO2 asphyxiation. Next, a blood sample was collected from the heart of each rat through arterial puncture using a 25G needle, and was then subjected to centrifugation at 1,500 g and 25° C. for 10 minutes, so as to obtain a serum sample. Thereafter, the right knee joint tissue of the respective rat in each group was obtained from each rat carcass and was washed with 0.9% normal saline.\nThe respective serum sample obtained in section E of this example was diluted 5-fold with RPMI 1640 medium. Thereafter, the content of cartilage oligomeric matrix protein (COMP) was determined using a rat COMP ELISA Kit (Cusabio, Cat. No. CSB-E13833r) in accordance with the manufacturer's instructions. In addition, the contents of TNF-α, IL-1β, IL-6, and IL-17A were respectively determined using a TNF-α ELISA Kit (Invitrogen, Cat. No. 88-7340-88), an IL-1β ELISA Kit (Invitrogen, Cat. No. 88-6010-22), an IL-6 ELISA Kit (Invitrogen, Cat. No. 88-50625-88), and an IL-17A ELISA Kit (Invitrogen, Cat. No. 88-7170-22) in accordance with the manufacturer's instructions. The content of prostaglandin E2 (PGE2) was determined using a PGE2 ELISA Kit (Cusabio, Cat. No. CSB-E07967r) in accordance with the manufacturer's instructions.\nMoreover, the content of nitric oxide (NO) was determined using the Griess assay. Briefly, 100 μL of the respective serum sample obtained in section E of this example was mixed with 100 μL of a Griess reagent (containing 0.2% N-(1-Naphthyl)ethylenediamine, 2% sulfanilamide, and 5% phosphoric acid), followed by being left standing for reaction to proceed at room temperature for 10 minutes. The resultant reaction mixture was subsequently subjected to determination of absorbance at a wavelength of 540 nm (OD540) using a spectrophotometer. The OD540 values obtained were subsequently converted to concentration expressed in pg/mL based on a correlation curve previously prepared by plotting different known concentrations of sodium nitrate standards versus OD540 values thereof.\nThe data thus obtained were analyzed according to the method described in section 1 of “General Procedures”."}},
  "data": [
    {"substance": "EGF: Epidermal growth factor (Cat. No. 02-108, Joycom Bio-chem) dissolved in PBS, 20 μg/g EGF; given to experimental group 1 (NSDSECPLSHDGYCLHDGVCMYIEALDKYACNCVVGYIGERCQYRDLKWWELR; UniProt P01133 971-1023, looked up)", "values": [
      {"measurement": "severity of RA (visual arthritis score, scale 1 to 8)", "setting": "[1]", "value": "increased slowly"},
      {"measurement": "content of cartilage oligomeric matrix protein (COMP)", "setting": "[2]", "value": "lower than that determined in the pathological control group"},
      {"measurement": "content of IL-1β", "setting": "[2]", "value": "lower than those determined in the pathological control group"},
      {"measurement": "content of IL-6", "setting": "[2]", "value": "lower than those determined in the pathological control group"},
      {"measurement": "content of IL-17A", "setting": "[2]", "value": "lower than those determined in the pathological control group"},
      {"measurement": "content of TNF-α", "setting": "[2]", "value": "lower than those determined in the pathological control group"},
      {"measurement": "content of PGE2", "setting": "[2]", "value": "lower than those determined in the pathological control group"},
      {"measurement": "content of NO", "setting": "[2]", "value": "lower than those determined in the pathological control group"}
    ]},
    {"substance": "hyaluronic acid [HA, reference compound]", "values": [
      {"measurement": "severity of RA (visual arthritis score, scale 1 to 8)", "setting": "[1]", "value": "increased slowly"},
      {"measurement": "content of cartilage oligomeric matrix protein (COMP)", "setting": "[2]", "value": "lower than that determined in the pathological control group"},
      {"measurement": "content of IL-1β", "setting": "[2]", "value": "lower than those determined in the pathological control group"},
      {"measurement": "content of IL-6", "setting": "[2]", "value": "lower than those determined in the pathological control group"},
      {"measurement": "content of IL-17A", "setting": "[2]", "value": "lower than those determined in the pathological control group"},
      {"measurement": "content of TNF-α", "setting": "[2]", "value": "lower than those determined in the pathological control group"},
      {"measurement": "content of PGE2", "setting": "[2]", "value": "lower than those determined in the pathological control group"},
      {"measurement": "content of NO", "setting": "[2]", "value": "lower than those determined in the pathological control group"}
    ]}
  ]
}
